Assay results as given in PMC10058761, “Heart-Type Fatty Acid Binding Protein Binds Long-Chain Acylcarnitines and Protects against Lipotoxicity” (International Journal of Molecular Sciences, 2023).
“And” between values parts separate entries of the source, which are not always exact repeats. Identical values can stand only once.

Columns and labels:
human FABP3 [1] = molecular target: T1, human FABP3 (Homo sapiens, UniProt P05413); test: Ligand binding by NMR (2D 1H-15N HSQC chemical shift perturbations); details: KPi buffer pH 7.6
T1 construct: His-tag (N); TEV cleavage site (N); made in house; host or cells: E. coli BL21(DE3)
Experimental: NMR spectra were acquired on the 600 MHz Bruker Avance Neo spectrometer (Bruker Biospin GmbH, Rheinstetten, Germany) equipped with a 5-mm quadruple-resonance CryoProbe (QCI) with z-gradients. […] All experiments were performed in KPi buffer without or with TX and with the addition of 7% (v/v) D2O, 0.03% (v/v) NaN3, and 0.01% (v/v) SigmaFAST EDTA-free protease inhibitor cocktail to prevent protein degradation. The amount of organic solvent (ethanol or DMSO-d6) was below 2% (v/v) in each experiment.
3D HNCA, 3D HNCO, 3D HN(CA)CO, and 3D CBCA(CO)NH spectra were acquired for the backbone assignment. 3D [^1H,^1H]-nuclear Overhauser spectroscopy (NOESY)-^15N-heteronuclear single-quantum correlation (HSQC) spectrum was acquired using a mixing time of 100 ms and also used in the backbone assignment. 2D ^1H-^15N HSQC spectra were acquired for evaluation of the CSPs caused by the lipid binding. Chemical shifts were referenced internally to the residual water signal at 4.70 ppm relative to the 4,4-dimethyl-4-silapentane-1-sulfonic acid (DSS). […] Other complexes were analyzed by analogy and with the help of 3D [^1H-^1H]-NOESY-^15N-HSQC. All spectra were processed in TopSpin v. 4.1.1. (Bruker, Billerica, MA, USA) and analyzed in CARA 1.9.1. software. Residue-specific protein backbone amide assignment was performed based on the published chemical shifts. CSPs, Δδ, were calculated using Equation (1) with the scaling factor, α, which was set to 0.1 [67, 68]. (1) Δδ=1/2[δH2+α·δN^2],

human FABP3 [2] = molecular target: T1, human FABP3; test: ITC determination of heat capacity change at 16, 25 and 37 °C; format: binding; details: KPi without TX; ΔH at 16, 25, 37 °C, linear regression
Text: Heat capacity changes, ΔCp, are important indicators of the structural changes during ligand-to-protein binding in various environmental conditions and may reflect changes in the static and dynamic properties of the protein [33, 34]. Moreover, it may represent interactions with extra supplements, such as salts and detergents, and larger processes, such as changes in protein folding, solvent-accessible surface area (SASA), or protonation states within the active site. […] Thermodynamic parameters for the remaining LCFAs were determined in the KPi + TX buffer, while LCACs were tested in the KPi buffer without any additive. Figure 7 represents an example of the overlays of the ITC experiments for C18:1(n-9)c and the corresponding LCAC performed at the following temperatures: 16, 25, and 37 °C.
(§1) ITC experiments were carried out on the MicroCal™ iTC200 instrument (Malvern Instruments Ltd., Malvern, UK). Experiments were performed in KPi buffer without and with 0.1% (v/v) TX supplement. All titrations except for the determination of the heat capacity, ΔCp, were performed at 25 °C using 20–120 μM protein. Experiments for the determination of the ΔCp were performed at three different temperatures: 16, 25, and 37 °C. 280 μL of the protein solution in the sample cell were titrated with the ligand solution diluted to 200–1200 μM depending on the enzyme concentration (to achieve a 1:10 or 1:5 ratio). Every titration started with a small 0.3 μL injection introduced to compensate for the diffusion effects. One of the following injection profiles was chosen based on the activity of the ligand and binding heat released: 1.2 μL × 32 or 1.5 μL × 26—all with 120 s time spacing between every injection and 600 rpm. Each ligand was titrated at least two times. The reference baseline consisting of small peaks of identical size (titration of the corresponding ligand into the buffer) was subtracted from the data before fitting to correct for the heat of the ligand dilution. The first injection was excluded from each dataset. The final data were fitted to a theoretical titration curve (one set of sites fitting model) using MicroCal Origin 7 SR4 software (OriginLab, Northampton, MA, USA).

human FABP3 [3] = molecular target: T1, human FABP3; test: ITC competitive binding experiments (FABP3 pre-saturated with a competing ligand); details: KPi, 25 °C
Experimental: as §1, with “The final data were fitted to a theoretical titration curve (one set of sites fitting model) using MicroCal Origin 7 SR4 software (OriginLab, Northampton, MA, USA).” left out

human FABP3 [4] = molecular target: T1, human FABP3; test: ITC assay of ligand binding to apo-FABP3; details: KPi pH 7.6, 25 °C, without TX; for N (stoichiometry): protein assumed 100% active and delipidated
Experimental: as §1, with “All titrations except for the determination of the heat capacity, ΔCp, were performed at 25 °C using 20–120 μM protein.” left out, “280 μL of the protein solution in the sample cell were titrated with the ligand solution diluted to 200–1200 μM depending on the enzyme concentration (to achieve a 1:10 or 1:5 ratio).” left out

[5] = LCAC cytotoxicity assay (MTT) in FABP3-overexpressing PANC-1 cells; format: cell-based; details: human, 40 μM C16:0-carnitine, cells transfected with the FABP3 plasmid, read-out: cell viability
Text: Cells were left to attach to the plate overnight.
Briefly, the cell media were removed from the wells.
Next, we tested whether overexpression of FABP3 could result in protective effects regarding the cell viability of the PANC-1 cells. The commercially available FuGENE® HD transfection reagent (Promega Corporation, Madison, WI, USA) was mixed with the FABP3 (NM_010174) mouse tagged ORF clone plasmid (OriGene Technologies, Inc., Rockville, MD, USA) in a 4:1 ratio for transfection according to the manufacturer’s protocol. Transfection was performed for 24 h in 6-well plates. To ensure transfection efficiency, quantitative PCR (qPCR) and Western blot analysis were performed (see Figures S52 and S53). Transfected PANC-1 cells were transferred to 96-well plates and further examined for C16:0-carnitine toxicity at various concentrations as previously described. The obtained results were compared to the effects in native cells.

in vitro = details: human
Experimental: PANC-1 (ATCC® CRL-1469™) pancreatic epithelial carcinoma cells were obtained from ATCC® (Manassas, VA, USA). PANC-1 cells were chosen as they are suitable for transfection and are characterized by low endogenous expression levels of FABP3. The cells were grown in Dulbecco’s Modified Eagle’s Medium (DMEM) supplemented with 10% (v/v) fetal bovine serum (FBS) and 1% (v/v) penicillin/streptomycin (Pen/Strep) at 37 °C in a humidified incubator with 5% CO2. All reagents for cell maintenance were purchased from Thermo Fisher Scientific. For experiments, PANC-1 cells were seeded at density 1 × 10^5 cells∙mL^−1 (100 μL per well) in the 96-well plate. Cells were left to attach to the plate overnight. Briefly, before the experiment, PANC-1 cells in 96-well plates were washed with Hanks’ Balanced Salt Solution (HBSS) several times. For all cell experiments, serum-free DMEM media were used.
Briefly, the cell media were removed from the wells. A solution of MTT was added to each well at the concentration of 1 mg∙mL^−1. The plate was incubated for 2 h at 37 °C. Then the MTT solution was removed and 100 μL of isopropyl alcohol was added to each well to dissolve the formazan crystals produced by living cells. The plate was then measured by the Hidex plate reader (Hidex Oy, Turku, Finland).

[6] = FABP3 saturated with C8:0, titrated with C18:1(n-9)t-carnitine, Competitive Binding model
[7] = FABP3 saturated with C8:0, titrated with C18:1(n-9)t-carnitine, One Set of Sites model

T1 sequence (P05413 whole entry): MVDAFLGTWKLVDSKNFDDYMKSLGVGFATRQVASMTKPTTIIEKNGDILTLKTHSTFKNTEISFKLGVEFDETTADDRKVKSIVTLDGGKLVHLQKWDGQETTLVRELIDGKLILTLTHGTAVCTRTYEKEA

| binding to FABP3 by NMR (CSPs in 2D 1H-15N HSQC) (human FABP3 [1]) | ΔCp (human FABP3 [2]) [kcal∙mol^−1∙K^−1] | -TΔS (human FABP3 [3]; [6]) [kcal/mol] | ΔG (human FABP3 [3]; [6]) [kcal/mol] | ΔH (human FABP3 [3]; [6]) [kcal/mol] | -TΔS (human FABP3 [3]; [7]) [kcal/mol] | Kd (human FABP3 [3]; [7]) [nM] | ΔG (human FABP3 [3]; [7]) [kcal/mol] | ΔH (human FABP3 [3]; [7]) [kcal/mol] | binding heat effects in competition titration (human FABP3 [3]; FABP3 saturated with C10:0, titrated with C18:1(n-9)t-carnitine) | Kd (human FABP3 [4]) | ΔG (human FABP3 [4]) [kcal/mol] | N (stoichiometry) (human FABP3 [4]) | ΔH (human FABP3 [4]) [kcal/mol] | −TΔS (human FABP3 [4]) [kcal/mol] | SMILES | viability at 4 h, 40 μM [5] [%] | CC50 at 4 h (in vitro) [nM] | viability at 4 h, 40 μM (in vitro) [%] |
| --- | --- | --- | --- | --- | --- | --- | --- | --- | --- | --- | --- | --- | --- | --- | --- | --- | --- | --- |
| strong CSPs indicative of binding | −0.14 ± 0.01 | 0.32 ± 0.09 | -11.7 ± 0.1 | -12.0 ± 0.3 | -5.8 ± 0.3 | 1800 ± 200 | -7.85 ± 0.08 | -2.0 ± 0.2 | no binding heat effects were detected | 2200 nM and 2190 nM | -7.72 ± 0.02 | 0.5 |  |  | CCCCCCCC/C=C/CCCCCCCC(=O)O[C@H](CC(=O)O)C[N+](C)(C)C [C18:1(n-9)t-carnitine, elaidoylcarnitine] |  |  |  |
| strong CSPs indicative of binding | −0.07 ± 0.01 |  |  |  |  |  |  |  |  | 14830 ± 80 nM | -6.61 ± 0.03 | 1.0 | -2.43 ± 0.09 | -4.19 ± 0.06 | CC/C=C\C/C=C\C/C=C\C/C=C\C/C=C\CCCC(=O)O[C@H](CC(=O)O)C[N+](C)(C)C [C20:5(n-3)c-carnitine, EPA-carnitine] |  |  |  |
| strong CSPs indicative of binding | −0.09 ± 0.01 |  |  |  |  |  |  |  |  | 2210 ± 70 nM | -7.72 ± 0.01 | 0.5 | -4.6 ± 0.2 | -3.1 ± 0.2 | CCCCCCCC/C=C\CCCCCCCC(=O)O[C@H](CC(=O)O)C[N+](C)(C)C.[Cl-] [C18:1(n-9)c-carnitine, oleoylcarnitine] |  |  |  |

| SMILES | binding to FABP3 by NMR (CSPs in 2D 1H-15N HSQC) (human FABP3 [1]) | ΔCp (human FABP3 [2]) [kcal∙mol^−1∙K^−1] | -TΔS (human FABP3 [3]; [6]) [kcal/mol] | ΔG (human FABP3 [3]; [6]) [kcal/mol] | ΔH (human FABP3 [3]; [6]) [kcal/mol] | -TΔS (human FABP3 [3]; [7]) [kcal/mol] | Kd (human FABP3 [3]; [7]) [nM] | ΔG (human FABP3 [3]; [7]) [kcal/mol] | ΔH (human FABP3 [3]; [7]) [kcal/mol] | binding heat effects in competition titration (human FABP3 [3]; FABP3 saturated with C10:0, titrated with C18:1(n-9)t-carnitine) | Kd (human FABP3 [4]) | ΔG (human FABP3 [4]) [kcal/mol] | N (stoichiometry) (human FABP3 [4]) | ΔH (human FABP3 [4]) [kcal/mol] | −TΔS (human FABP3 [4]) [kcal/mol] | viability at 4 h, 40 μM [5] [%] | CC50 at 4 h (in vitro) [nM] | viability at 4 h, 40 μM (in vitro) [%] |
| --- | --- | --- | --- | --- | --- | --- | --- | --- | --- | --- | --- | --- | --- | --- | --- | --- | --- | --- |
| CCCCCCCCCCCCCCCC(=O)O[C@H](CC(=O)[O-])C[N+](C)(C)C [C16:0-carnitine] | did not show any significant CSPs |  |  |  |  |  |  |  |  |  |  |  |  |  |  | ~70 | ~25000 | < 20 |
